{"source": "patent US7084146B2", "about": "(dated 2006)"}
{"smiles": "O=[N+]([O-])c1ccc(-c2c(Cl)nc3ncnn3c2NCC(F)(F)F)cc1", "values": [{"measurement": "melting point", "result": 237, "unit": "°C"}]}
